Results from paper PMC7782499, “Progerinin, an optimized progerin-lamin A binding inhibitor, ameliorates premature senescence phenotypes of Hutchinson-Gilford progeria syndrome” (Communications Biology, 2021).
Several values for one entry are separate records, joined by “and”; a condition that tells them apart may be missing. Equal entries are not always repeated.

Biological target: T1, progerin (Homo sapiens, UniProt P02545)
T1 sequence (P02545 1-614 isoform P02545-6): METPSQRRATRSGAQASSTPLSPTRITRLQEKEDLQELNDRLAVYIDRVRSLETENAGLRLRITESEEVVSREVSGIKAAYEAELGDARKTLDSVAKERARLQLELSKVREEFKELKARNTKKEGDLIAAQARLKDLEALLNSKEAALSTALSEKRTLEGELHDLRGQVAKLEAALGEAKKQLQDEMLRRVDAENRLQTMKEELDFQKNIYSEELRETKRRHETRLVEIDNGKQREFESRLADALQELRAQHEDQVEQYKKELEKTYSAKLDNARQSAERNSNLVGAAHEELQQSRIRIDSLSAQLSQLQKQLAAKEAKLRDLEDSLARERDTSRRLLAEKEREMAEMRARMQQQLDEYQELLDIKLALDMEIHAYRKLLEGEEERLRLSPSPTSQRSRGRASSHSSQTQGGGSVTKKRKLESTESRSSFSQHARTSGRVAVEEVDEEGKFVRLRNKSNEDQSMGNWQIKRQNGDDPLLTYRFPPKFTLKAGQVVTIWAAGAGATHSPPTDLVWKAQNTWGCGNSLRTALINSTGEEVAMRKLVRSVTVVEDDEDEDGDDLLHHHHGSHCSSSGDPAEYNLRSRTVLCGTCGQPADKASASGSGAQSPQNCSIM
Experiment: Progerin expression in HGPS patient cells (western blot, immunostaining)
Type: cell-based
Parameters: host or cells: HGPS patient fibroblasts
Settings: for Progerin intensity after treatment with chemicals, Ave: average; for Progerin intensity after treatment with chemicals: single replicates
Method: Fig. 1 SLC-D011 ameliorates premature aging features of HGPS. A. HEK293 cells were transiently transfected with expression vector encoding wild-type lamin A (WT-LA), lamin A-C661A (LA-C661A), progerin, or progerin-C611A. LA-C661A or progerin-C611A with point mutation in CaaX motif was predicted to be lack of farnesylation, […] that of authentic WT-LA or progerin. GFP-conjugated empty expression vector was used as a negative control. Cells were visualized at 24 h after transfection. B Transient transfection of HEK293 cells with expression vector encoding progerin or progerin-G611A leads to reduced expression of H3K9me3 (n = 3 independent experiments; two-tailed Student’s t test). C. JH4 derivatives (JH010 and SLC-D011(D011)) inhibit lamin A and progerin interaction. For binding inhibition assay, bead-conjugated lamin A (GST-LA) was incubated with HEK293 cells, transiently transfected with GFP-progerin (PG), and treated with indicated chemicals. Actin was used as a loading control. PPT, co-precipitated materials with recombinant proteins; Sup supernatant. 5 μM of each chemical was used for binding assay. […] H3K9me3 reduction is a well-known marker for premature aged cells. Thus, H3K9me3 expression was evaluated by immunostaining. […] E SLC-D011 obviously suppresses progerin expression. […] F SLC-D011 reduces the expression of progerin in other HGPS cells (AG11513 and AG11498, Coriell Cell Repositories). […] G JH4, JH010, and SLC-D011 promote cell proliferation. Cell viability was determined by MTT assay after incubation with chemicals for 7 days (n = 3 independent experiments; two-tailed Student’s t test). H JH4, JH010, and SLC-D011 show similar activity for ameliorating nuclear deformation. After incubation with chemicals for 7 days, cells were stained with progerin and H3K9me3 antibodies (n = 3 independent experiment; two-tailed Student’s t test), **p < 0.001. Data are reported as mean ± SD. “Con” means Dimethyl sulfoxide (DMSO)-treated control. The data are normalized to DMSO-treated cells.
Protein was extracted from cells using a radioimmunoprecipitation assay (RIPA) buffer (50 mM Tris-Cl, pH 7.5, 150 mM NaCl, 1% NP-40, 0.1% SDS, and 10% sodium deoxycholate). Samples were separated by sodium dodecyl sulfate-polyacrylamide gel electrophoresis (SDS-PAGE) and transferred to polyvinylidene difluoride (PVDF) membranes. Blotted membranes were blocked with 3% skimmed milk in TBS-T buffer (20 mM Tris pH 7.6, 150 mM NaCl, and 0.05% Tween 20) for 1 h followed by incubation with specific primary antibodies. Horseradish peroxidase (HRP)-conjugated goat anti-mouse, goat anti-rabbit, and mouse anti-goat IgG antibodies (Pierce, Thermo Fisher Scientific, Inc., Rockford, IL, USA) were used as secondary antibodies. Peroxidase activity was detected by chemiluminescence using an ECL kit (Intron, Seoul, Korea) following the manufacturer’s instructions. Bands were quantified using Image J software (National Institute of Health, NIH).
Cells were cultured on coverslips, washed with PBS, fixed with 4% paraformaldehyde (PFA) for 30 min at RT, and then permeabilized with 0.2% Triton X-100 at RT for 5 min. After treatment with blocking solution (anti-Human antibody diluted 1:400 in PBS) for 1 h, cells were incubated with anti-lamin A/C (1:400), anti-progerin (1:100), Ki67 (1:200), and anti-H3K9me3 (1:200) in blocking buffer overnight at 4 °C. Finally, cells were incubated with fluorescein isothiocyanate and rhodamine-conjugated secondary antibodies at 4 °C for 7 h. Nuclei were stained with DAPI (4, 6-diamidino-2-phenylindole) at RT for 10 min. After cells were washed three times with PBS, coverslips were mounted with mounting solution (H-5501; Vector Laboratories, Burlingame, CA, USA). Immunofluorescence signal was detected with a fluorescence microscopy (Zeiss and Logos).
Fig. S7. Therapeutic effect of SLC-D011 at a low concentration. […]
AG11513; B) dose-dependently. […]

Compound: CC1(C)Oc2cc3oc(=O)ccc3cc2C[C@@H]1OC/C=C/c1ccccc1 [SLC-D011]
- Progerin intensity after treatment with SLC-D011, Ave (AG03198, 10nM, average (Fig S7C)): 7.117 AU
- Progerin intensity after treatment with SLC-D011 (AG03198, 10nM, single replicates (Fig S7C)): 5.32 AU and 7.51 AU and 8.52 AU
- Progerin intensity after treatment with SLC-D011, Ave (AG03198, 50nM, average (Fig S7C)): 3.183 AU
- Progerin intensity after treatment with SLC-D011 (AG03198, 50nM, single replicates (Fig S7C)): 2.38 AU and 3.11 AU and 4.06 AU
- Progerin intensity after treatment with SLC-D011, Ave (AG03198, 100nM, average (Fig S7C)): 1.91 AU
- Progerin intensity after treatment with SLC-D011 (AG03198, 100nM, single replicates (Fig S7C)): 2.22 AU and 1.69 AU and 1.82 AU
- Progerin intensity after treatment with SLC-D011, Ave (AG03198, 500nM, average (Fig S7C)): 1.503 AU
- Progerin intensity after treatment with SLC-D011 (AG03198, 500nM, single replicates (Fig S7C)): 2.58 AU and 0.9 AU and 1.03 AU
- Progerin intensity after treatment with SLC-D011, Ave (AG03198, 1μM, average (Fig S7C)): 0.68 AU
- Progerin intensity after treatment with SLC-D011 (AG03198, 1μM, single replicates (Fig S7C)): 1.32 AU and 0.45 AU and 0.27 AU
- Progerin intensity after treatment with chemicals, Ave (AG03198, 2μM): 1.893 AU
- Progerin intensity after treatment with SLC-D011, Ave (AG03198, 2μM, average (Fig S7C)): 0.14 AU
- Progerin intensity after treatment with chemicals (AG03198, 2μM): 1.798 AU and 1.397 AU and 2.484 AU
- Progerin intensity after treatment with SLC-D011 (AG03198, 2μM, single replicates (Fig S7C)): 0 AU and 0.23 AU and 0.19 AU
- Progerin intensity after treatment with chemicals, Ave (AG03198, 5μM): 0.1657 AU
- Progerin intensity after treatment with SLC-D011, Ave (AG03198, 5μM, average (Fig S7C)): 0.02333 AU
- Progerin intensity after treatment with chemicals (AG03198, 5μM): 0 AU and 0.123 AU and 0.3741 AU
- Progerin intensity after treatment with SLC-D011 (AG03198, 5μM, single replicates (Fig S7C)): 0 AU (2×) and 0.07 AU
- Progerin intensity after treatment with SLC-D011, Ave (AG11498, 10nM, average (Fig S7C)): 6.647 AU
- Progerin intensity after treatment with SLC-D011 (AG11498, 10nM, single replicates (Fig S7C)): 6.56 AU and 6.24 AU and 7.14 AU
- Progerin intensity after treatment with SLC-D011, Ave (AG11498, 50nM, average (Fig S7C)): 4.11 AU
- Progerin intensity after treatment with SLC-D011 (AG11498, 50nM, single replicates (Fig S7C)): 2.38 AU and 3.5 AU and 6.45 AU
- Progerin intensity after treatment with SLC-D011, Ave (AG11498, 100nM, average (Fig S7C)): 1.733 AU
- Progerin intensity after treatment with SLC-D011 (AG11498, 100nM, single replicates (Fig S7C)): 0 AU and 1.5 AU and 3.7 AU
- Progerin intensity after treatment with SLC-D011, Ave (AG11498, 500nM, average (Fig S7C)): 0.9 AU
- Progerin intensity after treatment with SLC-D011 (AG11498, 500nM, single replicates (Fig S7C)): 0 AU and 0.6 AU and 2.1 AU
- Progerin intensity after treatment with SLC-D011, Ave (AG11498, 1μM, average (Fig S7C)): 0.4533 AU
- Progerin intensity after treatment with SLC-D011 (AG11498, 1μM, single replicates (Fig S7C)): 0 AU (2×) and 1.36 AU
- Progerin intensity after treatment with SLC-D011, Ave (AG11498, 2μM, average (Fig S7C)): 0.3333 AU
- Progerin intensity after treatment with SLC-D011 (AG11498, 2μM, single replicates (Fig S7C)): 0 AU (2×) and 1 AU
- Progerin intensity after treatment with SLC-D011, Ave (AG11498, 5μM, average (Fig S7C)): 0.25 AU
- Progerin intensity after treatment with SLC-D011 (AG11498, 5μM, single replicates (Fig S7C)): 0 AU (2×) and 0.75 AU
- Progerin intensity after treatment with SLC-D011, Ave (AG11498, average (Fig S3H)): 1.892 AU
- Progerin intensity after treatment with SLC-D011 (AG11498, single replicates (Fig S3H)): 5.217 AU and 0.1632 AU and 0.2958 AU
- Progerin intensity after treatment with SLC-D011, Ave (AG11513, 10nM, average (Fig S7C)): 5.123 AU
- Progerin intensity after treatment with SLC-D011 (AG11513, 10nM, single replicates (Fig S7C)): 2.96 AU and 6.48 AU and 5.93 AU
- Progerin intensity after treatment with SLC-D011, Ave (AG11513, 50nM, average (Fig S7C)): 3.793 AU
- Progerin intensity after treatment with SLC-D011 (AG11513, 50nM, single replicates (Fig S7C)): 3.06 AU and 4.3 AU and 4.02 AU
- Progerin intensity after treatment with SLC-D011, Ave (AG11513, 100nM, average (Fig S7C)): 2.487 AU
- Progerin intensity after treatment with SLC-D011 (AG11513, 100nM, single replicates (Fig S7C)): 2.07 AU and 2.27 AU and 3.12 AU
- Progerin intensity after treatment with SLC-D011, Ave (AG11513, 500nM, average (Fig S7C)): 1.19 AU
- Progerin intensity after treatment with SLC-D011 (AG11513, 500nM, single replicates (Fig S7C)): 0.81 AU and 1.08 AU and 1.68 AU
- Progerin intensity after treatment with SLC-D011, Ave (AG11513, 1μM, average (Fig S7C)): 0.59 AU
- Progerin intensity after treatment with SLC-D011 (AG11513, 1μM, single replicates (Fig S7C)): 0.55 AU and 0.6 AU and 0.62 AU
- Progerin intensity after treatment with SLC-D011, Ave (AG11513, 2μM, average (Fig S7C)): 0.2167 AU
- Progerin intensity after treatment with SLC-D011 (AG11513, 2μM, single replicates (Fig S7C)): 0.27 AU and 0.22 AU and 0.16 AU
- Progerin intensity after treatment with SLC-D011, Ave (AG11513, 5μM, average (Fig S7C)): 0.09 AU
- Progerin intensity after treatment with SLC-D011 (AG11513, 5μM, single replicates (Fig S7C)): 0.2 AU and 0 AU and 0.07 AU
- Progerin intensity after treatment with SLC-D011, Ave (AG11513, average (Fig S3H)): 1.455 AU
- Progerin intensity after treatment with SLC-D011 (AG11513, single replicates (Fig S3H)): 1.494 AU and 1.1106 AU and 1.761 AU
- Concentration enough for eliminating progerin (HGPS cells): 100 nM
- Effect on progerin expression (HGPS cells): reduce progerin expression
- Progerin intensity after treatment with SLC-D011, Ave (N9, average (Fig S3H)): 0 AU
- Progerin intensity after treatment with SLC-D011 (N9, single replicates (Fig S3H)): 0 AU

Compound: CC1(C)Oc2cc3oc(=O)ccc3cc2CC1OC(=O)C=Cc1cccnc1 (stereo not shown) [JH4]
- Progerin intensity after treatment with chemicals, Ave (AG03198, 2μM): 15.1057 AU
- Progerin intensity after treatment with chemicals (AG03198, 2μM): 13.2274 AU and 13.4377 AU and 18.652 AU
- Progerin intensity after treatment with chemicals, Ave (AG03198, 5μM): 4.247 AU
- Progerin intensity after treatment with chemicals (AG03198, 5μM): 1.2854 AU and 1.491 AU and 9.966 AU
